# Source: ChEMBL document CHEMBL1139937, “Novel 3-galloylamido-N'-substituted-2,6-piperidinedione-N-acetamide peptidomimetics as metalloproteinase inhibitors” (Bioorg Med Chem Lett, 2007)
# Tests used:
# [1] = target: 72 kDa type IV collagenase (Homo sapiens, UniProt P08253); assay: Inhibition of MMP2 after 30 mins
# [2] = target: T1, Aminopeptidase N (Sus scrofa, UniProt P15145); assay: Inhibition of pig kidney microsomal aminopeptidase assessed as liberation of p-nitroanilide
# T1 sequence (P15145 whole entry): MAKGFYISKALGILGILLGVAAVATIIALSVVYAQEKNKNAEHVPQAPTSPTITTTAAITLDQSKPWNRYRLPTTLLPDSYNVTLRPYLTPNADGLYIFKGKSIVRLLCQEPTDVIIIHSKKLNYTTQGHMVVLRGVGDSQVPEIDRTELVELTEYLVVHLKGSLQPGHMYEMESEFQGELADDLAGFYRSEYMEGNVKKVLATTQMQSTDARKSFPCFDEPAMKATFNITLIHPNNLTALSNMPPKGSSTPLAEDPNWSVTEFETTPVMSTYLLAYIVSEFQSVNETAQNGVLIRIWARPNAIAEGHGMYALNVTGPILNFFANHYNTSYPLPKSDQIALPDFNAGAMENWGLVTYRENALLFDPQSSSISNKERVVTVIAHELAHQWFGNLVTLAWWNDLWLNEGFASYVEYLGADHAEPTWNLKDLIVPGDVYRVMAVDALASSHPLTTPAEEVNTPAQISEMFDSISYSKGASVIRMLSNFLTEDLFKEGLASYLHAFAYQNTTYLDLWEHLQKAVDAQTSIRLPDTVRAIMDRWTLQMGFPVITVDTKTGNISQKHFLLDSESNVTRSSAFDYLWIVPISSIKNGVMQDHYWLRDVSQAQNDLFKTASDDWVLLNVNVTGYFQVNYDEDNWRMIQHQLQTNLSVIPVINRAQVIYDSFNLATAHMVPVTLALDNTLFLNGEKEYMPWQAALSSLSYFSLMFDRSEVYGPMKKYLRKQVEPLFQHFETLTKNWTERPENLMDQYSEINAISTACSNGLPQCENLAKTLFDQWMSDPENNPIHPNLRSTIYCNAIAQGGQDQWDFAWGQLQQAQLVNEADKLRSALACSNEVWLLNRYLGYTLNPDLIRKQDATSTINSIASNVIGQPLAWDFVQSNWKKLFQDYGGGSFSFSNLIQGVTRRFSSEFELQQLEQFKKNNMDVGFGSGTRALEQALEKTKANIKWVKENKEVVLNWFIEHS
# Chain of 72 kDa type IV collagenase (P08253 whole entry): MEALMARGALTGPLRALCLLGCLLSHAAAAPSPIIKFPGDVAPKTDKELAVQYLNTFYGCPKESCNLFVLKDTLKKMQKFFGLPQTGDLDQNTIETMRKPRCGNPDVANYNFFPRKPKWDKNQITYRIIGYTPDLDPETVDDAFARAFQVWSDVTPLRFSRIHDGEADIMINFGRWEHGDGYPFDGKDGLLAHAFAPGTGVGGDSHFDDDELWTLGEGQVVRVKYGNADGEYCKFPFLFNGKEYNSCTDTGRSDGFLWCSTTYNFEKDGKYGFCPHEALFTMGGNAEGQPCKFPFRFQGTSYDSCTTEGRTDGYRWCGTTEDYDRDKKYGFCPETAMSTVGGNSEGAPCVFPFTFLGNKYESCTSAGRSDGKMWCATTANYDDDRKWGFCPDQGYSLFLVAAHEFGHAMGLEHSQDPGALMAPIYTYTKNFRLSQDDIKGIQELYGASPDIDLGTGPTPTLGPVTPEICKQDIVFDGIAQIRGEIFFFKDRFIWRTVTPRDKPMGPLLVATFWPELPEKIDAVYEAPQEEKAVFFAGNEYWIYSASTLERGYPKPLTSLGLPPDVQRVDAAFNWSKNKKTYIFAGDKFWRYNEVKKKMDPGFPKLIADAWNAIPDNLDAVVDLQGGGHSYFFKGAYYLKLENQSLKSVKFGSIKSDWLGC
structure (smiles),measurement,setting,value
COC(=O)[C@H](Cc1c[nH]c2ccccc12)NC(=O)CN1C(=O)CC[C@H](NC(=O)c2cc(OC)c(OC)c(OC)c2)C1=O,IC50,[1],1.2 µM
same,IC50,[2],43.1 µM
COC(=O)[C@H](Cc1cnc[nH]1)NC(=O)CN1C(=O)CC[C@H](NC(=O)c2cc(OC)c(OC)c(OC)c2)C1=O,IC50,[1],13 µM
same,IC50,[2],5.2 µM
COC(=O)[C@@H](Cc1ccccc1)NC(=O)CN1C(=O)CC[C@H](NC(=O)c2cc(OC)c(OC)c(OC)c2)C1=O,IC50,[1],1.4 µM
same,IC50,[2],46.2 µM
COC(=O)[C@H](Cc1ccccc1)NC(=O)CN1C(=O)CC[C@H](NC(=O)c2cc(OC)c(OC)c(OC)c2)C1=O,IC50,[1],1.3 µM
same,IC50,[2],11 µM
COC(=O)[C@H](CS)NC(=O)CN1C(=O)CC[C@H](NC(=O)c2cc(OC)c(OC)c(OC)c2)C1=O,IC50,[1],1.7 µM
same,IC50,[2],50.3 µM
COC(=O)CN1C(=O)CC[C@H](NC(=O)c2cc(OC)c(OC)c(OC)c2)C1=O,IC50,[1],10.6 µM
same,IC50,[2],63.4 µM
COc1cc(C(=O)N[C@H]2CCC(=O)N(CC(=O)NO)C2=O)cc(OC)c1OC,IC50,[1],2.2 µM
same,IC50,[2],3.1 µM
COc1cc(C(=O)N[C@H]2CCC(=O)N(CC(=O)O)C2=O)cc(OC)c1OC,IC50,[1],4 µM
same,IC50,[2],49.8 µM
COC(=O)CNC(=O)CN1C(=O)CC[C@H](NC(=O)c2cc(OC)c(OC)c(OC)c2)C1=O,IC50,[1],4.4 µM
same,IC50,[2],55.4 µM
COC(=O)[C@H](CCCNC(N)=N[N+](=O)[O-])NC(=O)CN1C(=O)CC[C@H](NC(=O)c2cc(OC)c(OC)c(OC)c2)C1=O,IC50,[1],0.3 µM
same,IC50,[2],42 µM
COC(=O)[C@@H](NC(=O)CN1C(=O)CC[C@H](NC(=O)c2cc(OC)c(OC)c(OC)c2)C1=O)C(C)C,IC50,[1],1 µM
same,IC50,[2],21.4 µM
COC(=O)[C@H](CC(C)C)NC(=O)CN1C(=O)CC[C@H](NC(=O)c2cc(OC)c(OC)c(OC)c2)C1=O,IC50,[1],3.8 µM
same,IC50,[2],46.2 µM
CC[C@H](C)[C@H](NC(=O)CN1C(=O)CC[C@H](NC(=O)c2cc(OC)c(OC)c(OC)c2)C1=O)C(=O)OC,IC50,[1],4.3 µM
same,IC50,[2],49.3 µM
COC(=O)CCNC(=O)CN1C(=O)CC[C@H](NC(=O)c2cc(OC)c(OC)c(OC)c2)C1=O,IC50,[1],2.2 µM
same,IC50,[2],53.7 µM
COC(=O)[C@H](C)NC(=O)CN1C(=O)CC[C@H](NC(=O)c2cc(OC)c(OC)c(OC)c2)C1=O,IC50,[1],1.2 µM
same,IC50,[2],18.9 µM
COC(=O)[C@H](CCSC)NC(=O)CN1C(=O)CC[C@H](NC(=O)c2cc(OC)c(OC)c(OC)c2)C1=O,IC50,[1],1.2 µM
same,IC50,[2],20.7 µM
COC(=O)[C@H](CCCCNC(=O)c1ccccc1)NC(=O)CN1C(=O)CC[C@H](NC(=O)c2cc(OC)c(OC)c(OC)c2)C1=O,IC50,[1],0.6 µM
same,IC50,[2],38.1 µM
COC(=O)[C@H](Cc1ccc(O)cc1)NC(=O)CN1C(=O)CC[C@H](NC(=O)c2cc(OC)c(OC)c(OC)c2)C1=O,IC50,[1],0.3 µM
same,IC50,[2],44.8 µM
COC(=O)[C@@H](NC(=O)CN1C(=O)CC[C@H](NC(=O)c2cc(OC)c(OC)c(OC)c2)C1=O)[C@@H](C)O,IC50,[1],1.8 µM
same,IC50,[2],51.9 µM
COC(=O)[C@](C)(Cl)NC(=O)CN1C(=O)CC[C@H](NC(=O)c2cc(OC)c(OC)c(OC)c2)C1=O,IC50,[1],15.6 µM
same,IC50,[2],50 µM
COC(=O)C[C@H](NC(=O)CN1C(=O)CC[C@H](NC(=O)c2cc(OC)c(OC)c(OC)c2)C1=O)C(=O)OC,IC50,[1],0.5 µM
same,IC50,[2],21.7 µM
CC(C)C[C@H](NC(=O)[C@@H](O)[C@H](N)Cc1ccccc1)C(=O)O [UBENIMEX],IC50,[1],3.4 µM
